Experimental data published in ChEMBL document CHEMBL1255225, “Antiviral activity of various 1-(2'-deoxy-β-D-lyxofuranosyl), 1-(2'-fluoro-β-D-xylofuranosyl), 1-(3'-fluoro-β-D-arabinofuranosyl), and 2'-fluoro-2',3'-didehydro-2',3'-dideoxyribose pyrimidine nucleoside analogues against duck hepatitis B virus (DHBV) and human hepatitis B virus (HBV) replication” (J Med Chem, 2010).

Key:
Duck hepatitis B virus [1] = experiment: Antiviral activity against DHBV infected in duck hepatocytes assessed as inhibition of viral DNA replication relative to control; type: functional, Hepatocyte; set-up: concentration or dose not given beside the values
Hepatitis B virus [2] = experiment: Antiviral activity against HBV assessed as inhibition of viral DNA replication relative to control; type: functional; set-up: concentration or dose not given beside the values
[3] = Cytotoxicity against HuH7 cells; type: cell-based, Huh-7; conditions: human
Hepatitis B virus [4] = experiment: Antiviral activity against HBV assessed as inhibition of viral DNA replication at 10 ug/mL; type: functional; set-up: scale not given: the % may be the effect or the level left
Duck hepatitis B virus [5] = experiment: Antiviral activity against DHBV infected in duck hepatocytes assessed as inhibition of viral DNA replication at 10 ug/ml; type: functional, Hepatocyte; set-up: scale not given: the % may be the effect or the level left
Duck hepatitis B virus [6] = experiment: Antiviral activity against DHBV infected in duck hepatocytes assessed as inhibition of viral DNA replication; type: functional, organism-based; conditions: Hepatocyte
Hepatitis B virus [7] = experiment: Antiviral activity against drug resistant HBV infected in M204I cells assessed as inhibition of viral DNA replication at 5 ug/mL; type: functional; set-up: scale not given: the % may be the effect or the level left
Hepatitis B virus [8] = experiment: Antiviral activity against HBV assessed as inhibition of viral DNA replication; type: functional, organism-based
Hepatitis B virus [9] = experiment: Antiviral activity against drug resistant HBV infected in M204I cells assessed as inhibition of viral DNA replication; type: functional, organism-based
Hepatitis B virus [10] = experiment: Antiviral activity against HBV assessed as inhibition of viral DNA replication at 5 ug/mL; type: functional; set-up: scale not given: the % may be the effect or the level left
Duck hepatitis B virus [11] = experiment: Antiviral activity against DHBV infected in duck hepatocytes assessed as inhibition of viral DNA replication at 1 ug/ml; type: functional, Hepatocyte; set-up: scale not given: the % may be the effect or the level left
Hepatitis B virus [12] = experiment: Antiviral activity against drug resistant HBV infected in M204I cells assessed as inhibition of viral DNA replication at 1 ug/mL; type: functional; set-up: scale not given: the % may be the effect or the level left
Duck hepatitis B virus [13] = experiment: Antiviral activity against DHBV infected in duck hepatocytes assessed as inhibition of viral DNA replication at 0.05 ug/ml; type: functional, Hepatocyte; set-up: scale not given: the % may be the effect or the level left
Hepatitis B virus [14] = experiment: Antiviral activity against HBV assessed as inhibition of viral DNA replication at 1 ug/mL; type: functional; set-up: scale not given: the % may be the effect or the level left
Hepatitis B virus [15] = experiment: Antiviral activity against HBV assessed as inhibition of viral DNA replication at 0.5 ug/mL; type: functional; set-up: scale not given: the % may be the effect or the level left
Hepatitis B virus [16] = experiment: Antiviral activity against drug resistant HBV infected in M204I cells assessed as inhibition of viral DNA replication at 10 ug/mL; type: functional; set-up: scale not given: the % may be the effect or the level left
Hepatitis B virus [17] = experiment: Antiviral activity against drug resistant HBV infected in M204I cells assessed as inhibition of viral DNA replication at 1 to 5 ug/mL; type: functional; set-up: scale not given: the % may be the effect or the level left
Duck hepatitis B virus [18] = experiment: Antiviral activity against DHBV infected in duck hepatocytes assessed as inhibition of viral DNA replication at 0.01 to 0.05 ug/mL; type: functional, Hepatocyte; set-up: scale not given: the % may be the effect or the level left
Hepatitis B virus [19] = experiment: Antiviral activity against HBV assessed as inhibition of viral DNA replication at 0.5 to 1 ug/mL; type: functional; set-up: scale not given: the % may be the effect or the level left

SMILES	Activity (Duck hepatitis B virus [1]) [%]	Activity (Hepatitis B virus [2]) [%]	CC50 [3] [µM]	Activity (Hepatitis B virus [4]) [%]	Activity (Duck hepatitis B virus [5]) [%]	EC50 (Duck hepatitis B virus [6]) [µM]	EC50 (Hepatitis B virus [8]) [µM]	EC50 (Hepatitis B virus [9]) [µM]	also measured
O=c1[nH]c(=O)n([C@H]2C[C@@H](O)[C@@H](CO)O2)cc1Br	0	0	> 651						
O=c1ccn([C@H]2C[C@@H](O)[C@@H](CO)O2)c(=O)[nH]1	0	0	> 877						
Cc1cn([C@H]2C[C@@H](O)[C@@H](CO)O2)c(=O)[nH]c1=S	0	0	> 775						
CCc1cn([C@H]2C[C@@H](O)[C@@H](CO)O2)c(=O)[nH]c1=O	0	0	> 781						
O=c1[nH]c(=O)n([C@H]2C[C@@H](O)[C@@H](CO)O2)cc1Cl			> 763	15	25				
O=c1ccn([C@@H]2O[C@H](CO)[C@@H](F)[C@@H]2O)c(=O)[nH]1			> 813	15	25				
Cc1cn([C@@H]2O[C@H](CO)[C@@H](F)[C@@H]2O)c(=O)[nH]c1=O	0	0	> 769						
O=c1ccn([C@@H]2O[C@H](CO)[C@H](O)[C@H]2F)c(=O)[nH]1			> 813	40	50	40.6			
Cc1cn([C@@H]2O[C@H](CO)[C@H](O)[C@H]2F)c(=O)[nH]c1=O			> 769	60	72	3.84	19.2	19.2	Activity (Hepatitis B virus [7]): 50%; Activity (Hepatitis B virus [10]): 50%; Activity (Duck hepatitis B virus [11]): 50%
Cc1cn([C@@H]2O[C@H](CO)C=C2F)c(=O)[nH]c1=O			> 413	85	94	0.2	2	4.1	Activity (Hepatitis B virus [12]): 50%; Activity (Duck hepatitis B virus [13]): 50%; Activity (Duck hepatitis B virus [11]): 67%; Activity (Hepatitis B virus [14]): 58%; Activity (Hepatitis B virus [15]): 50%
CCc1cn([C@@H]2O[C@H](CO)C=C2F)c(=O)[nH]c1=O			> 781	50	50	39.1	39.1	39.1	Activity (Hepatitis B virus [16]): 50%
Cc1cn([C@H]2C[C@@H](O)[C@@H](CO)O2)c(=O)[nH]c1=O			> 826	50	65	4.13	41.3		Activity (Duck hepatitis B virus [11]): 50%; Activity (Hepatitis B virus [16]): 45%
Nc1ncnc2c1ncn2[C@H]1CC(O)[C@@H](CO)O1 (single isomer, unassigned) [DEOXYADENOSINE]				36	40				
O=c1[nH]c(=O)n([C@H]2CC(O)[C@@H](CO)O2)cc1F (single isomer, unassigned) [FLOXURIDINE]	0	0	> 813						
O=c1[nH]c(=O)n([C@H]2CC(O)[C@@H](CO)O2)cc1C(F)(F)F (single isomer, unassigned) [TRIFLURIDINE]			> 675	55	70	3.37	33.7	33.7	Activity (Duck hepatitis B virus [11]): 50%; Activity (Hepatitis B virus [16]): 50%
Nc1nc(NC2CC2)c2ncn([C@H]3C=C[C@@H](CO)C3)c2n1 [ABACAVIR]								< 2.6	Activity (Hepatitis B virus [17]): 80%
O=c1[nH]c(=O)n([C@H]2C[C@H](O)[C@@H](CO)O2)cc1I [IDOXURIDINE]	0	0	> 282						
Nc1ccn([C@@H]2CS[C@H](CO)O2)c(=O)n1 [LAMIVUDINE]			> 873			< 0.044	0.22	> 44	Activity (Duck hepatitis B virus [18]): 95%; Activity (Hepatitis B virus [16]): 40%; Activity (Hepatitis B virus [19]): 85%
